In ChEMBL document CHEMBL2040781, “Design, synthesis, and biological evaluation of chromone-based p38 MAP kinase inhibitors” (J Med Chem, 2011):
Calls of active or inactive are those of the source. The rule behind the calls is not given here.

Key:
[1] = target: Calcium/calmodulin-dependent protein kinase type 1 (Homo sapiens) (UniProt Q14012); assay: Inhibition of human CaMKI assessed as remaining activity at 0.8 uM after 40 mins by scintillation counting
[2] = target: cGMP-dependent protein kinase 1 (Homo sapiens) (UniProt Q13976); assay: Inhibition of human PKG1alpha assessed as remaining activity at 0.8 uM after 40 mins by scintillation counting
[3] = target: Mitogen-activated protein kinase kinase kinase 5 (Homo sapiens) (UniProt Q99683); assay: Inhibition of human ASK1 assessed as remaining activity at 0.8 uM after 40 mins by scintillation counting
[4] = target: ALK tyrosine kinase receptor (Homo sapiens) (UniProt Q9UM73); assay: Inhibition of human ALK assessed as remaining activity at 0.8 uM after 40 mins by scintillation counting
[5] = target: Casein kinase I isoform gamma-1 (Homo sapiens) (UniProt Q9HCP0); assay: Inhibition of human CK1gamma1 assessed as remaining activity at 0.8 uM after 40 mins by scintillation counting
[6] = target: Tyrosine-protein kinase Lyn (Homo sapiens) (UniProt P07948); assay: Inhibition of human Lyn assessed as remaining activity at 0.8 uM after 40 mins by scintillation counting
[7] = target: Mitogen-activated protein kinase 1 (Homo sapiens) (UniProt P28482); assay: Inhibition of human MAPK1 assessed as remaining activity at 0.8 uM after 40 mins by scintillation counting
[8] = target: Mitogen-activated protein kinase 13 (Homo sapiens) (UniProt O15264); assay: Inhibition of human SAPK4 assessed as remaining activity at 0.8 uM after 40 mins by scintillation counting
[9] = target: T1, Mitogen-activated protein kinase 14 (Homo sapiens, UniProt Q16539); assay: Inhibition of p38alpha MAPK after 40 mins by scintillation counting
[10] = target: MAP kinase-activated protein kinase 2 (Homo sapiens) (UniProt P49137); assay: Inhibition of human MAPKAP-K2 assessed as remaining activity at 0.8 uM after 40 mins by scintillation counting
[11] = target: Aurora kinase A (Homo sapiens) (UniProt O14965); assay: Inhibition of human Aurora-A assessed as remaining activity at 0.8 uM after 40 mins by scintillation counting
[12] = target: Cyclin-dependent kinase 2/cyclin A (Homo sapiens) (UniProt P24941+P20248+P78396); assay: Inhibition of human CDK2/cyclinA assessed as remaining activity at 0.8 uM after 40 mins by scintillation counting; type: protein-complex assay
[13] = target: CDK6/cyclin D3 (Homo sapiens) (UniProt P30281+Q00534); assay: Inhibition of human CDK6/cyclinD3 assessed as remaining activity at 0.8 uM after 40 mins by scintillation counting; type: protein-complex assay
[14] = target: Cyclin-dependent kinase 7/ cyclin H (Homo sapiens) (UniProt P51946+P50613); assay: Inhibition of human CDK7/cyclinH/MAT1 assessed as remaining activity at 0.8 uM after 40 mins by scintillation counting; type: protein-complex assay
[15] = target: Ribosomal protein S6 kinase beta-1 (Homo sapiens) (UniProt P23443); assay: Inhibition of human p70S6K assessed as remaining activity at 0.8 uM after 40 mins by scintillation counting
[16] = target: Ribosomal protein S6 kinase alpha-4 (Homo sapiens) (UniProt O75676); assay: Inhibition of human MSK2 assessed as remaining activity at 0.8 uM after 40 mins by scintillation counting
[17] = target: MAP kinase-interacting serine/threonine-protein kinase 2 (Homo sapiens) (UniProt Q9HBH9); assay: Inhibition of human Mnk2 assessed as remaining activity at 0.8 uM after 40 mins by scintillation counting
MCF7 = assay: Potentiation of doxorubicin-mediated cytotoxicity in human MCF7 cells at 1 uM after 4 hrs by prestoblue cell viability assay; type: functional, cell-based
MDA-MB-436 = assay: Antiproliferative activity against human MDA-MB-436 cells at 1 uM after 4 hrs by prestoblue cell viability assay; type: functional, cell-based
[18] = target: RAF proto-oncogene serine/threonine-protein kinase (Homo sapiens) (UniProt P04049); assay: Inhibition of human RAF assessed as remaining activity at 0.8 uM after 40 mins by scintillation counting
[19] = target: Mitogen-activated protein kinase 10 (Homo sapiens) (UniProt P53779); assay: Inhibition of human JNK3 assessed as remaining activity at 0.8 uM after 40 mins by scintillation counting
[20] = target: 5'-AMP-activated protein kinase catalytic subunit alpha-1 (Homo sapiens) (UniProt Q13131); assay: Inhibition of human AMPKalpha1 assessed as remaining activity at 0.8 uM after 40 mins by scintillation counting
[21] = target: Serine/threonine-protein kinase PAK 2 (Homo sapiens) (UniProt Q13177); assay: Inhibition of human PAK2 assessed as remaining activity at 0.8 uM after 40 mins by scintillation counting
[22] = target: Dual specificity mitogen-activated protein kinase kinase 7 (Homo sapiens) (UniProt O14733); assay: Inhibition of human MKK7beta assessed as remaining activity at 0.8 uM after 40 mins by scintillation counting
[23] = target: Serine/threonine-protein kinase Chk1 (Homo sapiens) (UniProt O14757); assay: Inhibition of human CHK1 assessed as remaining activity at 0.8 uM after 40 mins by scintillation counting
[24] = target: Glycogen synthase kinase-3 beta (Homo sapiens) (UniProt P49841); assay: Inhibition of human GSK3beta assessed as remaining activity at 0.8 uM after 40 mins by scintillation counting
[25] = target: Mitogen-activated protein kinase kinase kinase 7 (TAK1) (Homo sapiens) (UniProt O43318); assay: Inhibition of human TAK1 assessed as remaining activity at 0.8 uM after 40 mins by scintillation counting
Homo sapiens = species on record: Homo sapiens; assay: Inhibition of human PI3K assessed as remaining activity at 0.8 uM after 40 mins by scintillation counting
[26] = target: Serine/threonine-protein kinase 4 (Homo sapiens) (UniProt Q13043); assay: Inhibition of human MST1 assessed as remaining activity at 0.8 uM after 40 mins by scintillation counting
[27] = target: Inhibitor of nuclear factor kappa-B kinase subunit alpha (Homo sapiens) (UniProt O15111); assay: Inhibition of human IKKalpha assessed as remaining activity at 0.8 uM after 40 mins by scintillation counting
[28] = target: Serine/threonine-protein kinase pim-1 (Homo sapiens) (UniProt P11309); assay: Inhibition of human Pim-1 assessed as remaining activity at 0.8 uM after 40 mins by scintillation counting
[29] = target: T1, Mitogen-activated protein kinase 14; assay: Inhibition of human SAPK2a assessed as remaining activity at 0.8 uM after 40 mins by scintillation counting
[30] = target: Tyrosine-protein kinase JAK2 (Homo sapiens) (UniProt O60674); assay: Inhibition of human JAK2 assessed as remaining activity at 0.8 uM after 40 mins by scintillation counting
[31] = target: Interleukin-1 receptor-associated kinase 4 (Homo sapiens) (UniProt Q9NWZ3); assay: Inhibition of human IRAK4 assessed as remaining activity at 0.8 uM after 40 mins by scintillation counting
[32] = target: Dual specificity mitogen-activated protein kinase kinase 1 (Homo sapiens) (UniProt Q02750); assay: Inhibition of human MEK1 assessed as remaining activity at 0.8 uM after 40 mins by scintillation counting

T1 sequence (Q16539 whole entry): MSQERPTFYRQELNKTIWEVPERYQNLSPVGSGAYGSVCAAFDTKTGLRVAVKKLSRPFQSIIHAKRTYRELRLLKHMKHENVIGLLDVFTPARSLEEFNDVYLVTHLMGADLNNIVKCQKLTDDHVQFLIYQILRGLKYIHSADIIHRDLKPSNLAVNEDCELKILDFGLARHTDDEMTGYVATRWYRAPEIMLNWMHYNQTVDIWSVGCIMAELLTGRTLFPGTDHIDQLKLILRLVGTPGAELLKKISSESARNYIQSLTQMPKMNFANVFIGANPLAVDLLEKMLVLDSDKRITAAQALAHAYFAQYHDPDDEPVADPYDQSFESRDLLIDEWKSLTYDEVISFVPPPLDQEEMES
Chain of MAP kinase-interacting serine/threonine-protein kinase 2 (Homo sapiens) (Q9HBH9 whole entry, looked up): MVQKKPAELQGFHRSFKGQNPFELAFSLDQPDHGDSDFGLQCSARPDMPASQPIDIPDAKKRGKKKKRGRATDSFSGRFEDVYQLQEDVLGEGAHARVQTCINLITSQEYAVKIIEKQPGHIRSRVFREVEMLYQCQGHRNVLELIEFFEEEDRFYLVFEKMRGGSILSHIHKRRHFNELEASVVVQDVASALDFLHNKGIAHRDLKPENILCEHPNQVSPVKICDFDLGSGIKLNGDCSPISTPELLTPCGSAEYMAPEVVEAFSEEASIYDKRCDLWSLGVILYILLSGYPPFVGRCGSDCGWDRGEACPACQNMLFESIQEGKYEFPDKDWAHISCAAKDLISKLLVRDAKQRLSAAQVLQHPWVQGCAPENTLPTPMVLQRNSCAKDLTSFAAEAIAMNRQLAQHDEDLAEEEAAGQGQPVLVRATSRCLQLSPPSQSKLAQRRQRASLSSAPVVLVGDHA
Chain of Dual specificity mitogen-activated protein kinase kinase 7 (Homo sapiens) (O14733 whole entry): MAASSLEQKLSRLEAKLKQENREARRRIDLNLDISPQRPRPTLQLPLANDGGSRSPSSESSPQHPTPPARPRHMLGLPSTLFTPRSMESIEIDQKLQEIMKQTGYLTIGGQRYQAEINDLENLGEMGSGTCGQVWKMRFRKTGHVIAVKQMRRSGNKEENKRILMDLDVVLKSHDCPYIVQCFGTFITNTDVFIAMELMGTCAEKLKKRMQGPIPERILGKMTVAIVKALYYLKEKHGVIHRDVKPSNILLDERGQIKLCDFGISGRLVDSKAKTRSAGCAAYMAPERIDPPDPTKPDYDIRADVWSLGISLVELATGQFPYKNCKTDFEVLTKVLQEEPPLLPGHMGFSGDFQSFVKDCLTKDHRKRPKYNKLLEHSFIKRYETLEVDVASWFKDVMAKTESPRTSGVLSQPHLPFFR
Chain of Mitogen-activated protein kinase 1 (Homo sapiens) (P28482 whole entry): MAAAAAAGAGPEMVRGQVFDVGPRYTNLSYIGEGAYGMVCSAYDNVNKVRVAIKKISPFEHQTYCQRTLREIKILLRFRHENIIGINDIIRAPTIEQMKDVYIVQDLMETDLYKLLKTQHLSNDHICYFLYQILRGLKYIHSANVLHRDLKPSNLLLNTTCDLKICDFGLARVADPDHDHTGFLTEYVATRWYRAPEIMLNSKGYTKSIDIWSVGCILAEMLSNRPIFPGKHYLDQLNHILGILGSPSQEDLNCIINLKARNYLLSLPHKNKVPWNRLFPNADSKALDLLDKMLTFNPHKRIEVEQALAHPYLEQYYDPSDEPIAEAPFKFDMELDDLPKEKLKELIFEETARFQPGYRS
Chain of 5'-AMP-activated protein kinase catalytic subunit alpha-1 (Homo sapiens) (Q13131 whole entry, looked up): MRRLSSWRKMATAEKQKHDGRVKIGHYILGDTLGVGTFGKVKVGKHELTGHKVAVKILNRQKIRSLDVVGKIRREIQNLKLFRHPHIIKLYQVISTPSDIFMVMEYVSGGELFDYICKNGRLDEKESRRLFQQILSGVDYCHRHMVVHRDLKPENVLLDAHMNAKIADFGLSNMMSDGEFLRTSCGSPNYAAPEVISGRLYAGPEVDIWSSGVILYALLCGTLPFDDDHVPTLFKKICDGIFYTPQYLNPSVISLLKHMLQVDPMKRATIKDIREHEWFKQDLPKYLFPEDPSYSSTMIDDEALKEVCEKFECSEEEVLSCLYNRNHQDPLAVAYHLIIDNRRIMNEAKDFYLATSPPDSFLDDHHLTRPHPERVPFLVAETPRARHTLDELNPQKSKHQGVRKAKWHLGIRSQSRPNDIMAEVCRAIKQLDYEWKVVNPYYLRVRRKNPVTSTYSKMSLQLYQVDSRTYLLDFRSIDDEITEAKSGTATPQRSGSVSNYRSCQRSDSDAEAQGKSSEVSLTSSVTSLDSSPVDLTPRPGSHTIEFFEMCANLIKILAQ
Chain of Interleukin-1 receptor-associated kinase 4 (Homo sapiens) (Q9NWZ3 whole entry): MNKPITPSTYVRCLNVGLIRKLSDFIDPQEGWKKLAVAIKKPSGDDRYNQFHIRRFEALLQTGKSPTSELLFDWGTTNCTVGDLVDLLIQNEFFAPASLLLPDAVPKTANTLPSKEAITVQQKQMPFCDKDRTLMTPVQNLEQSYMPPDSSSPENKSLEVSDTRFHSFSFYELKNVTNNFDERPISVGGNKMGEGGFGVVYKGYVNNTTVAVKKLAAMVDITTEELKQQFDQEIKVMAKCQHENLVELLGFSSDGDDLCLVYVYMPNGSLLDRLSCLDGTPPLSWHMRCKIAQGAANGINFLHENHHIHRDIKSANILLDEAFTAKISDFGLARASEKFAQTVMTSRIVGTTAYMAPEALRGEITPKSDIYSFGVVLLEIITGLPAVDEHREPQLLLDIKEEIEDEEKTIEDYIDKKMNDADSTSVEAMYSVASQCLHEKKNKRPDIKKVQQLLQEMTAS
Chain of Mitogen-activated protein kinase kinase kinase 5 (Homo sapiens) (Q99683 whole entry): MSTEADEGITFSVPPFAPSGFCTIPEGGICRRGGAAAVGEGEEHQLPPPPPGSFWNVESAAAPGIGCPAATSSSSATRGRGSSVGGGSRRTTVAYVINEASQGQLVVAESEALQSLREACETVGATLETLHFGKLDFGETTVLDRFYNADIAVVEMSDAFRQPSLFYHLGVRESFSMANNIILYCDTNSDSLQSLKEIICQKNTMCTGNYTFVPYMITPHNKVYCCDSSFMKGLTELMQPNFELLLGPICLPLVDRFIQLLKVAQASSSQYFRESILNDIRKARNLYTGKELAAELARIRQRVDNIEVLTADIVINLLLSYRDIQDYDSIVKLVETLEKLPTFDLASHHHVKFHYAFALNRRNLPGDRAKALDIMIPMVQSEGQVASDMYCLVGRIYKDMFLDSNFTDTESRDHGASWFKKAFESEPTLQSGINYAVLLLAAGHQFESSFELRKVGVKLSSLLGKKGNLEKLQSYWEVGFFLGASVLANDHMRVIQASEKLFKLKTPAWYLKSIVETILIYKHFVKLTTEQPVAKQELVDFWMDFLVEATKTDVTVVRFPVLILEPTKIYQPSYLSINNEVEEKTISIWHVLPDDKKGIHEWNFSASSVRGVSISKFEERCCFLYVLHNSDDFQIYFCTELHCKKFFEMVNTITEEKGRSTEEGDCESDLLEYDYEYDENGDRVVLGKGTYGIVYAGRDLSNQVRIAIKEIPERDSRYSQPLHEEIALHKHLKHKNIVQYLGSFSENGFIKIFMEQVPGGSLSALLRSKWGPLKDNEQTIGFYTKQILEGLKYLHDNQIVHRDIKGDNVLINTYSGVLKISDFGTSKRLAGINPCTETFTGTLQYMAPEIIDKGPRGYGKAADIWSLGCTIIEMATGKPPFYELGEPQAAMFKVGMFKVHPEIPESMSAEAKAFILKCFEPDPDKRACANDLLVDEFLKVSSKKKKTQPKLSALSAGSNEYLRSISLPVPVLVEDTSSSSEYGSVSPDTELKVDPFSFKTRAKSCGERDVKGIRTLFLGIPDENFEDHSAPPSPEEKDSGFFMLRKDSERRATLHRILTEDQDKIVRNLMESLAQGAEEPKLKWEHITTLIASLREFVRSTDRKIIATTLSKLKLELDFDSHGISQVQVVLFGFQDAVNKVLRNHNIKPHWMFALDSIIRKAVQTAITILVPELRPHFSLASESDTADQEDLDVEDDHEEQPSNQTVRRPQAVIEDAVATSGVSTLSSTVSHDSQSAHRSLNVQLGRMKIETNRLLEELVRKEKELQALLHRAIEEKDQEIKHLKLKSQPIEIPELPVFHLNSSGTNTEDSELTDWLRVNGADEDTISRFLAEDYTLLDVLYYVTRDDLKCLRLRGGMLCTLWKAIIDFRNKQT
Chain of MAP kinase-activated protein kinase 2 (Homo sapiens) (P49137 whole entry, looked up): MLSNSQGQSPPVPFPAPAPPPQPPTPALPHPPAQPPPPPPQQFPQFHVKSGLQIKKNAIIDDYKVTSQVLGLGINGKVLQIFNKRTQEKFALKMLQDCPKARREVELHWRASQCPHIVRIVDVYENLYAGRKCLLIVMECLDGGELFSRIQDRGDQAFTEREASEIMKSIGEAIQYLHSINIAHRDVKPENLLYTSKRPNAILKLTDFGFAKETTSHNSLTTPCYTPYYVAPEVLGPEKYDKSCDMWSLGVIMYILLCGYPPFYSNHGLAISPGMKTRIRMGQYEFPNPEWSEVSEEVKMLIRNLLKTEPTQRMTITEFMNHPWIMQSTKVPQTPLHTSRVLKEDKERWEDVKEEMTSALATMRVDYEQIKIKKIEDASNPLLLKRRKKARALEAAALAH
Chain of Serine/threonine-protein kinase Chk1 (Homo sapiens) (O14757 whole entry): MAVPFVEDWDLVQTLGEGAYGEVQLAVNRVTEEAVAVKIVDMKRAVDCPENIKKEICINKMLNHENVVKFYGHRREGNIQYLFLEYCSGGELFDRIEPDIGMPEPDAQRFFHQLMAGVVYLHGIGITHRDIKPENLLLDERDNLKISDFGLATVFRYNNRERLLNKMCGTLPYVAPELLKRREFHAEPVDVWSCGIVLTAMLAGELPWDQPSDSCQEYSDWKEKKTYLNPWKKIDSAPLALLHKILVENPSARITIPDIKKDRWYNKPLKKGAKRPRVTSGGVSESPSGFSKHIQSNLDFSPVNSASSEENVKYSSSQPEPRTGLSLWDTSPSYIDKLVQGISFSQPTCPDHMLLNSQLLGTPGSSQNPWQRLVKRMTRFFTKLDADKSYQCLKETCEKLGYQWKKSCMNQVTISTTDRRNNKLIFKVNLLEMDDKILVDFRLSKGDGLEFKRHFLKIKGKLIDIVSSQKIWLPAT

Compound | Activity [1] | Activity [2] | Activity [3] | Activity [4] | Activity [5] | Activity [6] | Activity [7] | Activity [8] | IC50 [9] | Activity [10] | Activity [11] | Activity [12] | Activity [13] | Activity [14] | Activity [15] | Activity [16] | Activity [17] | Activity (MCF7) | Activity (MDA-MB-436) | Activity [18] | further results
CC(C)Nc1cc(-c2oc3ccccc3c(=O)c2-c2ccc(F)cc2)ccn1 | 94% | 104% | 105% | 88% | 94% | 101% | 82% | 104% | 17 nM | 104% | 104% | 95% | 100% | 100% | 102% | 89% | 96% | inactive | inactive | 73% | Activity [19]: 21%; Activity [20]: 97%; Activity [21]: 106%; Activity [22]: 120%; Activity [23]: 98%; Activity [24]: 132%; Activity [25]: 97%; Activity (Homo sapiens): 100%; Activity [26]: 99%; Activity [27]: 106%; Activity [28]: 100%; Activity [29]: -3%; Activity [30]: 109%; Activity [31]: 91%; Activity [32]: 99%
O=c1c(-c2ccc(F)cc2)c(-c2ccnc(NC3CCCCC3)c2)oc2ccccc12 | 96% | 102% | 102% | 91% | 97% | 98% | 87% | 112% | 34 nM | 99% | 107% | 101% | 99% | 101% | 102% | 95% | 103% | inactive | inactive | 83% | Activity [19]: 24%; Activity [20]: 102%; Activity [21]: 104%; Activity [22]: 99%; Activity [23]: 104%; Activity [24]: 124%; Activity [25]: 103%; Activity (Homo sapiens): 100%; Activity [26]: 93%; Activity [27]: 100%; Activity [28]: 97%; Activity [29]: -1%; Activity [30]: 102%; Activity [31]: 95%; Activity [32]: 104%
